Consider 30 compounds from patent US9212168B2 (priority 2011, dated 2015).

In the first test the test system is HCV genotype 1a replicon. The test is described as follows: HCV genotype 1a replicon assay (NS3 protease activity readout). Type of test: cell-based, hepatitis C virus. Particulars: HCV genotype 1a replicon. As to the method:
Assay 2: HCV Genotype 1a Replicon Assay
The HCV genotype 1a replicon cell line was obtained from Apath LLC (APC89; Huh7.5 cell background). This subgenomic replicon contains the N-terminus of the HCV core protein fused to the neomycin-resistance selectable marker. The EMCV IRES lies downstream and drives expression of the non-structural proteins NS3-NS5B. Compound potencies were determined using the NS3-specific protease activity in lysates as a measurement of compound inhibition of replicon levels.
Cells were grown at 37° C. in a 5% CO2 humidified incubator in DMEM (Invitrogen) with 10% FBS (HyClone), 1×NEAA (Invitrogen), 1× Pen-Strep (Invitrogen), and 850 μg/mL G418 (Invitrogen). On day 1 of the assay, cells were plated at 15,000 cells/well in black 96-well tissue culture plates (Costar) in 200 μL media lacking G418. Four hours later, once the cells had adhered, the media was removed and replaced with media (no G418) containing dose-responses of test compounds. Compounds were initially diluted in DMSO and then diluted another 200× in media to bring the final DMSO concentration down to 0.5%. The cells were incubated with test compounds for 48 or 72 hours. At the end of the incubation period, media and compound were removed from the plates.
To determine the NS3-specific protease activity in lysates, the cells were lysed at room temperature in 50 μL/well of 50 mM Hepes pH 7.5, 150 mM NaCl, 15% Glycerol, 0.15% Triton X-100, 10 mM DTT for 20 minutes with shaking. 50 μL of an NS3/4a protease-specific FRET substrate (Anaspec RET S1 Cat#22991) was then added to the wells at a final concentration of 15 μM. The plates were incubated at 37° C. for 20 minutes, which corresponds to a timepoint at which the protease activity is still in the linear phase. Protease activity was determined by measuring fluorescence (Excitation: 340 nm; Emission: 509 nm).
To analyze the data, the fluorescence was plotted vs. the compound concentration, and EC50 values were determined from a 4-parameter robust fit model using GraphPad Prism software.
Consider `COC(=O)NC(C(=O)N1CC(OC)CC1c1nc(-c2ccc(-c3ccc(NC(=O)c4ccc(N5CCN(C(=O)C(C)(C)CO)CC5C)nc4)cc3OC(F)(F)F)cc2)c[nH]1)C(C)OC` (stereo not drawn) [Example 16-16], for which the “Genotype 1a” value is reported as “D (D represents pEC50>10 (EC50<0.1 nM))”.

Turning to `COC(=O)N[C@H](C(=O)N1C[C@@H](OC)C[C@H]1c1nc(-c2ccc(-c3cc(Cl)c(NC(=O)c4ccc(N5C[C@H](C)N(C(=O)C(C)(C)CO)C[C@H]5C)nc4)cc3OC(F)(F)F)cc2)c[nH]1)C1CCOCC1` [Example 28-5], the “Genotype 1a” value was “D (D represents pEC50>10 (EC50<0.1 nM))”.

As for `COC(=O)NC(C(=O)N1C[C@@H](C)C[C@H]1c1nc(-c2ccc(-c3c(F)cc(NC(=O)c4ccc(N5CCN(C(=O)C(C)(C)C)C[C@H]5C)nc4)cc3F)cc2)c[nH]1)C1CCCCC1` (stereo partly drawn) [Example 21-4], the “Genotype 1a” value was “C (C represents pEC50 between and 9 and about 10, (EC50 between 1 nM and 0.1 nM))”.

With `CNC(=O)N1C[C@@H](C)N(c2ccc(C(=O)Nc3cc(OC(F)(F)F)c(-c4ccc(-c5c[nH]c([C@@H]6C[C@H](C)CN6C(=O)[C@@H](NC(=O)OC)C(C)(C)C)n5)cc4)cc3Cl)cn2)C[C@@H]1C` [Example 7-1], the “Genotype 1a” value is on record as “D (D represents pEC50>10 (EC50<0.1 nM))”.

In the case of `COC(=O)N[C@H](C(=O)N1C[C@@H](OC)C[C@H]1c1nc(-c2ccc(-c3cc(Cl)c(NC(=O)c4ccc(N5C[C@H](C)N(C(=O)C6CC6)C[C@H]5C)nc4)cc3OC(F)(F)F)cc2)c[nH]1)C1CCOCC1` [Example 28-10], the “Genotype 1a” value is listed as “D (D represents pEC50>10 (EC50<0.1 nM))”.

As to `COC(=O)N[C@H](C(=O)N1C[C@@H](C)C[C@H]1c1nc(-c2ccc(-c3cc(F)c(NC(=O)c4ccc(N5CCN(C(=O)[C@]6(C)CCCN6)C[C@H]5C)nc4)cc3OC(F)(F)F)cc2)c[nH]1)C(C)C` [Example 1-27], the “Genotype 1a” value was “C (C represents pEC50 between and 9 and about 10, (EC50 between 1 nM and 0.1 nM))”.

For the compound `CNC(=O)N1CCC[C@@]1(C)C(=O)N1CCN(c2ccc(C(=O)Nc3cc(OC(F)(F)F)c(-c4ccc(-c5c[nH]c([C@@H]6C[C@H](C)CN6C(=O)[C@@H](NC(=O)OC)C(C)C)n5)cc4)cc3Cl)cn2)[C@H](C)C1` [Example 1-22], the “Genotype 1a” value is “D (D represents pEC50>10 (EC50<0.1 nM))”.

Take `COC(=O)N[C@H](C(=O)N1C[C@@H](C)C[C@H]1c1nc(-c2ccc(-c3cc(Cl)c(NC(=O)c4ccc(N5C[C@H](C)N(C(=O)[C@H]6CCCN6S(C)(=O)=O)C[C@H]5C)nc4)cc3OC(F)(F)F)cc2)c[nH]1)C(C)C` [Example 1-45]: the “Genotype 1a” value is on record as “D (D represents pEC50>10 (EC50<0.1 nM))”.

Turning to `COC(=O)N[C@H](C(=O)N1C[C@@H](OC)C[C@H]1c1nc(-c2ccc(-c3cc(Cl)c(NC(=O)c4ccc(N5C[C@H](C)N(C(=O)NC(C)(C)C)C[C@H]5C)nc4)cc3OC(F)(F)F)cc2)c[nH]1)C1CCOCC1` [Example 28-9], the “Genotype 1a” value is “D (D represents pEC50>10 (EC50<0.1 nM))”.

As to `COC(=O)N[C@H](C(=O)N1C[C@@H](C)C[C@H]1c1nc(-c2ccc(-c3cc(Cl)c(NC(=O)c4ccc(N5CCN(C(=O)C6CC6)C[C@H]5C)nc4)cc3OC(F)(F)F)cc2)c[nH]1)C(C)C` [Example 1-42], the “Genotype 1a” value is recorded as “D (D represents pEC50>10 (EC50<0.1 nM))”.

Regarding `COC(=O)N[C@H](C(=O)N1C[C@@H](C)C[C@H]1c1nc(-c2ccc(-c3cc(Cl)c(NC(=O)c4ccc(N5CCN(C(=O)C(C)(C)C)C[C@H]5C)nc4)cc3C(F)(F)F)cc2)c[nH]1)C1CCCC1` [Example 19-11], the “Genotype 1a” value was “D (D represents pEC50>10 (EC50<0.1 nM))”.

As to `COC(=O)N[C@H](C(=O)N1C[C@H](C)C[C@H]1c1nc(-c2ccc(-c3cc(Cl)c(C(=O)Nc4ccc(N5CCN(C(=O)C(C)(C)C)C[C@H]5C)nc4)cc3OC(F)(F)F)cc2)c[nH]1)C1CCOCC1` [24-5], the “Genotype 1a” value was “C (C represents pEC50 between and 9 and about 10, (EC50 between 1 nM and 0.1 nM))”.

For the compound `COC(=O)N[C@H](C(=O)N1C[C@@H](C)C[C@H]1c1nc(-c2ccc(-c3ccc(C(=O)Nc4ccc(N5C[C@H](C)N(C(=O)[C@@H](C)NC(C)=O)C[C@H]5C)nc4)cc3OC(F)(F)F)cc2)c[nH]1)C(C)C` [Example 4-28], the “Genotype 1a” value is given as “D (D represents pEC50>10 (EC50<0.1 nM))”.

For the compound `COC(=O)N[C@H](C(=O)N1C[C@@H](C)C[C@H]1c1nc(-c2ccc(-c3ccc(C(=O)Nc4ccc(N5CCN(C(=O)[C@H]6CC6(C)C)C[C@H]5C)nc4)cc3)cc2)c[nH]1)C1CCOCC1` [Example 22-2], the “Genotype 1a” value was “D (D represents pEC50>10 (EC50<0.1 nM))”.

Take `COC(=O)N[C@H](C(=O)N1C[C@@H](C)C[C@H]1c1nc(-c2ccc(-c3cc(Cl)c(NC(=O)c4ccc(N5CCN(C(=O)C(C)(C)CO)C[C@H]5C)nc4)cc3C(F)(F)F)cc2)c[nH]1)C1CCOCC1` [Example 19-4]: the “Genotype 1a” value was “D (D represents pEC50>10 (EC50<0.1 nM))”.

The test is the same for the next values; noted with them: Hepatitis C virus, read-out: Genotype 1a, HCV genotype 1a replicon.
For `COC(=O)N[C@H](C(=O)N1C[C@@H](N2CCCC2)C[C@H]1c1nc(-c2ccc(-c3cc(Cl)c(NC(=O)c4ccc(N5CCN(C(=O)C(C)(C)C)C[C@H]5C)nc4)cc3OC(F)(F)F)cc2)c[nH]1)C(C)C` [Example 15-9], the EC50 is below 0.1 nM.

Turning to `CNC(=O)N1C[C@@H](C)N(c2ccc(C(=O)Nc3cc(OC(F)(F)F)c(-c4ccc(-c5c[nH]c([C@@H]6C[C@H](C)CN6C(=O)C(C)N(C)C(=O)OC)n5)cc4)cc3Cl)cn2)C[C@@H]1C` (stereo partly drawn) [Example 7-14], the EC50 is below 0.1 nM.

Regarding `COCC1(C(=O)N2CCN(c3ccc(C(=O)Nc4cc(OC(F)(F)F)c(-c5ccc(-c6c[nH]c([C@@H]7C[C@H](C)CN7C(=O)[C@@H](NC(=O)OC)C(C)C)n6)cc5)cc4Cl)cn3)[C@H](C)C2)CC1` [Example 12-44], the EC50 was below 0.1 nM.

Turning to `COC(=O)N[C@H](C(=O)N1C[C@H](N2Cc3ccccc3C2)C[C@H]1c1nc(-c2ccc(-c3cc(Cl)c(NC(=O)c4ccc(N5CCN(C(=O)C(C)(C)C)C[C@H]5C)nc4)cc3OC(F)(F)F)cc2)c[nH]1)C(C)C` [Example 5-10], the EC50 was 10 to 1000 nM.

With `COC(=O)N[C@H](C(=O)N1C[C@@H](OC)C[C@H]1c1nc(-c2ccc(-c3cc(F)c(NC(=O)c4ccc(N5CCN(C(=O)C(C)(C)C)[C@@H](CO)C5)nc4)cc3OC(F)(F)F)cc2)c[nH]1)C1CCOCC1` [Example 5-16], the EC50 was below 0.1 nM.

With `COC(=O)N[C@H](C(=O)N1C[C@@H](N(C)C)C[C@H]1c1nc(-c2ccc(-c3ccc(C(=O)Nc4ccc(N5CCN(C(=O)N(C)C)C[C@H]5C)nc4)cc3OC(F)(F)F)cc2)c(Cl)[nH]1)C(C)C` [Example 10-4], the EC50 is 0.1 to 1 nM.

Consider `COC(=O)N[C@H](C(=O)N1C[C@@H](C)C[C@H]1c1nc(-c2ccc(-c3cc(Cl)c(NC(=O)c4ccc(N5CCN(C(=O)CC6CCOCC6)C[C@H]5C)nc4)cc3OC(F)(F)F)cc2)c[nH]1)C(C)C` [Example 12-28], for which the EC50 is below 0.1 nM.

As for `COC(=O)N[C@H](C(=O)N1C[C@H](OC)C[C@H]1c1nc(-c2ccc(-c3cc(Cl)c(NC(=O)c4ccc(N5CCN(C(=O)C(C)(C)C)C[C@H]5C)nc4)cc3OC(F)(F)F)cc2)c[nH]1)C1CCOCC1` [Example 5-20], the EC50 was below 0.1 nM.

For `COC(=O)NC(C(=O)N1C[C@@H](C)C[C@H]1c1nc(-c2ccc(-c3ccc(C(=O)Nc4ccc(N5CCN(C(=O)C(C)(C)C)C[C@H]5C)nc4)c(Cl)c3OC(F)(F)F)cc2)c[nH]1)C1CCOCC1` (stereo partly drawn) [Example 25-3], the EC50 is 0.1 to 1 nM.

On to `COCC(=O)N1CCC[C@@]1(C)C(=O)N1CCN(c2ccc(C(=O)Nc3ccc(-c4ccc(-c5c[nH]c([C@@H]6CC7(CN6C(=O)[C@@H](NC(=O)OC)C(C)C)OCCO7)n5)cc4)c(OC(F)(F)F)c3)cn2)[C@H](C)C1` [Example 5-2], for which the EC50 was below 0.1 nM.

Consider `CCC(CO)(CO)C(=O)N1CCN(c2ccc(C(=O)Nc3cc(OC(F)(F)F)c(-c4ccc(-c5c[nH]c([C@@H]6C[C@H](C)CN6C(=O)[C@@H](NC(=O)OC)C(C)C)n5)cc4)cc3Cl)cn2)[C@H](C)C1` [Example 12-4], for which the EC50 is below 0.1 nM.

As to `COC(=O)N[C@H](C(=O)N1C[C@@H](C)C[C@H]1c1nc(-c2ccc(-c3cc(Cl)c(NC(=O)c4ccc(N5CCN(C(=O)C(C)(C)C)C[C@H]5C)nc4)cc3OC(F)(F)F)cc2)c(CO)[nH]1)C(C)C` [Example 5-12], the EC50 was below 0.1 nM.

With `COC(=O)N[C@H](C(=O)N1C[C@@H](C)C[C@H]1c1nc(-c2ccc(-c3cc(Cl)c(NC(=O)c4ccc(N5CCN(C(=O)C(C)N(C)C)C[C@H]5C)nc4)cc3OC(F)(F)F)cc2)c[nH]1)C(C)C` (stereo partly drawn) [Example 12-23], the EC50 is below 0.1 nM.

With `COC(=O)NC(C(=O)N1C[C@@H](C)C[C@H]1c1nc(-c2ccc(-c3ccc(C(=O)Nc4ccc(N5CCN(C(=O)C(C)(C)C)C[C@H]5C)nc4)c(Cl)c3OC(F)(F)F)cc2)c[nH]1)C(C)C` (stereo partly drawn) [Example 25-4], the EC50 was 0.1 to 1 nM.

As to `COC(=O)N[C@H](C(=O)N1C[C@@H](C)C[C@H]1c1nc(-c2ccc(-c3cc(Cl)c(NC(=O)c4ccc(N5CCN(C(=O)C6CCCN6C(N)=O)C[C@H]5C)nc4)cc3OC(F)(F)F)cc2)c[nH]1)C(C)C` (stereo partly drawn) [Example 12-6], the EC50 was below 0.1 nM.
